From patent publication US9370503B1, “Compounds for treating ocular diseases” (priority 2015, dated 2016)

Experiments:
[1] = tested on: Ocular Hypertensive Rabbit; test: Ocular blood flow in ocular hypertensive rabbit (colored microspheres); assay type: in vivo; conditions: 1% topical instillation, 30 minutes after drug instillation
Method: 0.5% alcaine was purchased commercially. A 20% sterilized hypertonic saline solution was prepared in the laboratory. Colored microspheres were purchased from E-Z Trac (Los Angeles, Calif.). The colored microspheres were diluted with saline containing 0.01% (v/v) of Tween 80 to prevent the microspheres from sticking together. Two million microspheres in 0.4 ml were injected at each time point.
Female New Zealand white rabbits weighing 2.-3.0 kg, were purchased commercially. Animal care and treatment were followed by the institutional guidelines.
Rabbits were anesthetized with 35 mg/kg ketamine and 5 mg/kg xylazine by intramuscular injection. Half of the initial dose was given every one hour thereafter. The left ventricle was cannulated through the right carotid artery for injection of colored microspheres and the femoral artery was cannulated for collection of blood samples. The left eye was treated with one drop of proparacaine hydrochloride ophthalmic solution (Bausch & Lomb, Inc., Tampa, Fla., USA). The needle was inserted directly into the anterior chamber of the left eye, which was connected to the 40 mmHg saline manometer. The ocular hypertensive model reduced the ocular blood flow to approximately one third of the normal valued. 50 μl of 10 g/l flavone or vehicle (30% HP-β-CD solution) was instilled topically to the left eye 30 minutes after the ocular hypertensive model was built. The ocular blood flow was measured by colored microspheres at 0, 30, 60 and 120 minutes after treatment with the compounds or vehicle. At each time point, 2 million microspheres were injected as a reference, and blood samples were taken from the femoral artery for exactly one minute following injection of the microspheres. The blood sample was collected in a heparinized tube and the volume was recorded. The rabbits were euthanized with an injection of 100 mg/kg pentobarbital sodium after the last blood sampling. The left eyes were enucleated and dissected into the iris, ciliary body, retina and choroid. All the tissues were weighed.
The details of sample processing and microsphere counting were provided by E-Z Trac (Los Angeles, Calif., USA). In brief, the blood hemolysis reagent was added to the microfuge tubes with the blood sample, then vortexed and centrifuged for 30 minutes at 6000 rpm. The supernatant was removed, and then tissue/blood digest reagents I and II were added. The tubes were capped, vortexed, and centrifuged for 30 minutes. […] The number of microspheres was counted by the hemocytometer under the microscope. […] The protocol thereafter was the same as that used to process the blood samples, and the microspheres were counted.
The blood flow of each tissue at a certain time point was calculated according to the following formula: Qm=(Cm×Qr)/Cr. […]

[2] = tested on: rat's retinal function after ischemic insult; test: b-wave recovery of retinal function after ischemic insult (ERG); assay type: in vivo; conditions: 1% instilled topically
Method: The retinal ischemia experiment has been described previously (Chiou et al., J. Ocular Pharmacol. 9:179-185, 1993, and Chiou et al., J. Ocular Pharmacol. 10:493-498, 1994). Electroretinograms (ERG) were carried out to assess the retinal function prior to and after the ischemic insult. ERGs were recorded using Ag/AgCl electrodes placed in contact with the cornea. One stainless steel needle was inserted subcutaneously between the two eyes as a reference electrode, and another needle was inserted subcutaneously into the neck as a ground electrode. A photostimulator (Grass PS22 Flash) was used to produce flashes of light 5 inches from the eye, and the ERG potentials were recorded on a polygraph. The ERG system was purchased from LKC Technologies, Inc. (Gaithersburg, Md.). A single flash (10 msec) of white light stimuli was used to evoke ERG a- and b-waves. Peak b-wave amplitudes were measured from the trough of the a-wave to the peak of the b-wave.
Long-Evans rats (200-250 g), dark-adapted at least 2 hours, were anaesthetized intramuscularly with ketamine (35 mg/kg) plus xylazine (5 mg/kg). Half of the initial dose was administrated at one hour intervals to maintain adequate anesthesia. The pupils were dilated with 1% tropicamide (50 μl) for ERG experiments. Retinal ischemia was produced by occlusion of the central retina and posterior ciliary arteries using a ligature placed around the optic nerve and posterior ciliary artery. The ligature was drawn tightly through a micropipette tip placed at the base of the eyeball socket to occlude the retinal vessels for 30 min. After 30 min of retinal ischemia, the ligature was liberated and the retinal arteries allowed to reperfuse. ERGs were measured at 30, 60, 90, 120, 180 and 240 min thereafter. The compounds and vehicle were administered topically before occlusion of the central retinal arteries.

- b-wave amplitude recovery, of the original level ([2]; after 30 min retinal ischemia and reperfusion): approximately 50%
- duration of drug action on b-wave recovery ([2]; after drug application): at least 240 min
Structure (SMILES): CC(C)=CCC/C(C)=C/Cc1c(O)cc2c(c1O)C(=O)C[C@@H](c1ccc(O)c(O)c1)O2 [Formula (I)]
- blood flow in choroid [1]: significantly increased
- blood flow in iris [1]: significantly increased
